In US11130768B2, “Bicyclic pyrazole derivatives” (Bayer Animal Health GMBH, priority 2017, dated 2021):

Experiments:
[1] = system: Nippostrongylus brasiliensis; experiment: In Vitro Assay 2: Nippostrongylus brasiliensis (NIPOBR), acetylcholine esterase readout; conditions: adult worms, read-out: activity (reduction of AChE compared to negative control); for inhibition at 1 µg/mL: 1 μg/ml (1 ppm); for inhibition at 10 µg/mL: 10 μg/ml (10 ppm)
Description: In Vitro Assay 2: Nippostrongylus brasiliensis (NIPOBR)
Adult Nippostrongylus brasiliensis were washed with saline buffer containing 100 U/ml penicillin, 0.1 mg/ml streptomycin and 2.5 μg/ml amphotericin B. Test compounds were dissolved in DMSO and worms were incubated in medium in a final concentration of 10 μg/ml (10 ppm) respectively 1 μg/ml (1 ppm). An aliquot of the medium was used to determine the acetylcholine esterase activity in comparison to a negative control. The principle of measuring acetylcholine esterase as readout for anthelmintic activity was described in Rapson et al (1986) and Rapson et al (1987).

[2] = system: Dirofilaria immitis microfilariae; experiment: In Vitro Assay 3: Dirofilaria immitis microfilariae (DIROIM L1), motility; conditions: 72 h, read-out: EC50 (reduction of motility)
[3] = system: Haemonchus contortus; conditions: 120 h, read-out: activity (larval mortality)
Description: Solvent: dimethyl sulfoxide
Approximately 40 larvae of the red stomach worm (Haemonchus contortus) are transferred into a test tube containing compound solution.
After 5 days the percentage of larval mortality is recorded. 100% efficacy means all larvae are killed, 0% efficacy means no larvae are killed.

[4] = target: C. elegans Slo-1a (Caenorhabditis elegans, UniProt Q95V25)
Description: In Vitro Assay 1: C. elegans Slo-1a—Action at a Recombinant C. elegans Cell Line
Generation of a Stable C. elegans CHO Cell Line
A CHO cell line was obtained from ATCC, code ATCC CRL-9096. For transfection with plasmid DNA to express C. elegans Slo-1a (accession number AAL28102) CHO cells were passaged to 40% confluence before adding the transfection solution to the cell culture. The transfection solution included 300 μL OptiMEM (Life Technologies, Nr.: 31985), 2 μL (=6 μg) of plasmid DNA containing the C. elegans Slo 1a gene and 9 μL FugeneHD (Promega, Nr.: E2311), and was added to the cells prior to incubation for 48 hours at 37° C., 5% CO2. The transfection medium was exchanged for the selection medium which contains additional G418 (2 mg/ml, Invitrogen, Nr.: 10131) and the cells were seeded into 384 well plates (300 cells/well). After a few weeks, the remaining surviving cells were tested with a voltage sensitive dye (Membrane Potential Assay Kit, Molecular Devices Nr.: R8034) for K+ channel expression. Positive cell clones were purified by the limited dilution technique. For this the clone with the highest and most robust signal in the voltage sensitive dye assay was further subcloned (incubated) in 384 well plates (0.7 cells/well) in order to obtain clonal purity. This generated a final stable CHO cell line expressing the C. elegans Slo-1a.
Cells were cultured at 37° C. and 5% CO2 in MEMalpha with Gutamax I (Invitrogen, Nr.: 32571), supplemented with 10% (v/v) heat inactivated fetal bovine serum (Invitrogen, Nr.: 10500), G418 (1 mg/ml, Invitrogen, Nr.: 10131). Cells were detached using Accutase (Sigma, Nr.: A6964).
Membrane Potential Measurements
Laboratory compound testing was performed on 384-well microtiter plates (MTPs, Greiner, Nr.: 781092). 8000 cells/well were plated onto 384-well MTPs and cultured for 20 to 24 hours at 37° C. and 5% CO2. After removal of the cell culture medium, the cells were washed once with tyrode (150 mM NaCl, 0.3 mM KCl, 2 mM CaCl2, 1 mM MgCl2, 0.8 mM NaH2PO4, 5 mM Glucose, 28 mM Hepes, pH 7.4) and then loaded with the voltage sensitive dye of the Membrane Potential Assay Kit diluted in tyrode for 1 h at room temperature.
After starting the measurement of fluorescence using a FLIPR Tetra (Molecular Devices, Exc. 510-545 nm, Emm. 565-625 nm), test compounds were added followed by the addition of KCl tyrode (final assay concentration: 70 mM KCl, 2 mM CaCl2, 1 mM MgCl2, 0.8 mM NaH2PO4, 5 mM Glucose, 28 mM Hepes, pH 7.4, including the voltage sensitive dye). The measurement was completed after 7 minutes.
The data were evaluated by using the ActivityBase XLfit software (IDBS) for curve fitting and calculation of the half-maximal effective concentration (EC50) and are reported as negative decadic logarithm (pE50).

[5] = system: Cooperia curticei; conditions: 120 h, read-out: activity (larval mortality)
Description: In Vitro Assay 6: Cooperia curticei (COOPCU L3)
Solvent: dimethyl sulfoxide
Approximately 40 nematode larvae (Cooperia curticei) are transferred into a test tube containing the compound solution.
After 5 days percentage of larval mortality is recorded. 100% efficacy means all larvae are killed; 0% efficacy means no larvae are killed.

C. elegans Slo-1a, sequence (Q95V25 whole entry): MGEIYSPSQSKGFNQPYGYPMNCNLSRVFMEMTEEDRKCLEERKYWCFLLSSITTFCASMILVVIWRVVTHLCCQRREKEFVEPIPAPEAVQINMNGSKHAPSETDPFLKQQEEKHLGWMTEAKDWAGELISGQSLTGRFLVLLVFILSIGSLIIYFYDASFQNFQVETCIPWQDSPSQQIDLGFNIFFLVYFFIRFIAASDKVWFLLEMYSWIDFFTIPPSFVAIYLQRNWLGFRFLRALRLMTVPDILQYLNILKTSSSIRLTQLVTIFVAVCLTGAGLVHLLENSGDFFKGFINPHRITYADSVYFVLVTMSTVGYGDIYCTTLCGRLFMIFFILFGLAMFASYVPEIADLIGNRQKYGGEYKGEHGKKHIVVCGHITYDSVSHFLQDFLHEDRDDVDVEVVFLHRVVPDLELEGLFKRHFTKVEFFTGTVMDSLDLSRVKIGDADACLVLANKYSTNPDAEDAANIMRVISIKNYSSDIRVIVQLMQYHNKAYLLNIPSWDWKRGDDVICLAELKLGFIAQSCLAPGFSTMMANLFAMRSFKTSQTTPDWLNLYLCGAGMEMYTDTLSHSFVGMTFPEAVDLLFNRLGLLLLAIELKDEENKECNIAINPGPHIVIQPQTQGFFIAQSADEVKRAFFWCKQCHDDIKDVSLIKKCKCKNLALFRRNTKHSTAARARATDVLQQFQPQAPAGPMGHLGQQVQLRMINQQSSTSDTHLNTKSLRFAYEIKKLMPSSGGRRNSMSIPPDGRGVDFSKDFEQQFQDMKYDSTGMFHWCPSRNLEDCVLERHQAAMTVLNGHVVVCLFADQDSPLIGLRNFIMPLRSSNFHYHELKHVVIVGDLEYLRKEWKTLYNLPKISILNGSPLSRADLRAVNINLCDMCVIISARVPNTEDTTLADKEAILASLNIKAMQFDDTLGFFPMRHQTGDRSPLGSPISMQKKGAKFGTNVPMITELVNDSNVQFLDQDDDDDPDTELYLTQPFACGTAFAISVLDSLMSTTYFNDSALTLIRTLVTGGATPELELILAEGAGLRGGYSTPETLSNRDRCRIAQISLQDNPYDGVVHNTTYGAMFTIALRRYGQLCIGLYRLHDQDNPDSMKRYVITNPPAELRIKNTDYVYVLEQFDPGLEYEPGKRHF

Row | Structure (SMILES) | inhibition at 1 µg/mL [1] [%] | inhibition at 10 µg/mL [1] [%] | EC50 [2] [µg/mL] | mortality at 20 ppm [3] [%] | EC50 [4] [nM] | mortality at 20 ppm [5] [%]
1 | Cc1nn2c(C(C)C)c(C(=O)N[C@H]3CCOc4ccccc43)sc2c1-c1cc(Cl)cc(Cl)c1 [Example 1, 7-(3,5-dichlorophenyl)-N-[(4S)-3,4-dihydro-2H-chromen-4-yl]-3-isopropyl-6-methylpyrazolo[5,1-b][1,3]thiazole-2-carboxamide] | > 80 | > 80 | < 0.1 | 90 | 3.16 to 31.6 | 
2 | Cc1nn2c(C(C)C)c(C(=O)N[C@H]3CCOc4ccccc43)sc2c1-c1cccc(Cl)c1Cl [Example 2, 7-(2,3-dichlorophenyl)-N-[(4S)-3,4-dihydro-2H-chromen-4-yl]-6-methyl-3-(propan-2-yl)pyrazolo[5,1-b][1,3]thiazole-2-carboxamide] |  | > 80 | < 0.1 |  | < 3.16 | 90
3 | Cc1nn2c(C(C)C)c(C(=O)N[C@H]3CCOc4ccccc43)sc2c1-c1cccc(C(F)(F)F)c1F [Example 3, 7-[2-fluoro-3-(trifluoromethyl)phenyl]-N-[(4S)-3,4-dihydro-2H-chromen-4-yl]-6-methyl-3-(propan-2-yl)pyrazolo[5,1-b][1,3]thiazole-2-carboxamide] |  | > 80 | < 0.1 | 90 | < 3.16 | 90
4 | Cc1nn2c(C(C)C)c(C(=O)N[C@H]3CCOc4ccccc43)sc2c1-c1cccc(OC(F)(F)F)c1F [Example 4, N-[(4S)-3,4-dihydro-2H-chromen-4-yl]-7-[2-fluoro-3-(trifluoromethoxy)phenyl]-3-isopropyl-6-methylpyrazolo[5,1-b][1,3]thiazole-2-carboxamide] |  | > 80 | < 0.1 | 80 | < 3.16 | 80
5 | Cc1nn2c(C(C)C)c(C(=O)N[C@H]3CCOc4ccccc43)sc2c1-c1cc(Cl)c(F)c(Cl)c1 [Example 5, 7-(3,5-dichloro-4-fluorophenyl)-N-[(4S)-3,4-dihydro-2H-chromen-4-yl]-3-isopropyl-6-methylpyrazolo[5,1-b][1,3]thiazole-2-carboxamide] | > 80 | > 80 | < 0.1 |  | < 3.16 | 90
6 | Cc1nn2c(C(C)C)c(C(=O)N[C@H]3CCOc4ccccc43)sc2c1-c1ccc(F)c(N(C)C)c1F [Example 6, N-[(4S)-3,4-dihydro-2H-chromen-4-yl]-7-[3-(dimethylamino)-2,4-difluorophenyl]-6-methyl-3-(propan-2-yl)pyrazolo[5,1-b][1,3]thiazole-2-carboxamide] | > 80 | > 80 | < 0.1 |  | < 3.16 | 90
7 | Cc1nn2c(C(C)C)c(C(=O)N[C@H]3CCOc4ccccc43)sc2c1-c1ccc(Cl)c(Cl)c1 [Example 7, 7-(3,4-dichlorophenyl)-N-[(4S)-3,4-dihydro-2H-chromen-4-yl]-6-methyl-3-(propan-2-yl)pyrazolo[5,1-b][1,3]thiazole-2-carboxamide] |  | > 80 | < 0.1 |  | 3.16 to 31.6 | 
8 | Cc1nn2c(C(C)C)c(C(=O)N[C@H]3CCOc4ccccc43)sc2c1-c1ccc(F)c(F)c1 [Example 8, 7-(3,4-difluorophenyl)-N-[(4S)-3,4-dihydro-2H-chromen-4-yl]-6-methyl-3-(propan-2-yl)pyrazolo[5,1-b][1,3]thiazole-2-carboxamide] |  |  | < 0.1 |  | 3.16 to 31.6 | 
9 | Cc1nn2c(C(C)C)c(C(=O)N[C@H]3CCOc4ccccc43)sc2c1-c1ccc(F)c(F)c1F [Example 9] |  |  | < 0.1 |  | 3.16 to 31.6 | 90
10 | Cc1nn2c(C(C)C)c(C(=O)N[C@H]3CCOc4ccccc43)sc2c1-c1c(Cl)cccc1Cl [Example 10, 7-(2,6-dichlorophenyl)-N-[(4S)-3,4-dihydro-2H-chromen-4-yl]-6-methyl-3-(propan-2-yl)pyrazolo[5,1-b][1,3]thiazole-2-carboxamide] |  |  | < 0.1 |  | < 3.16 | 
11 | Cc1nn2c(C(C)C)c(C(=O)N[C@H]3CCOc4ccccc43)sc2c1-c1cccc(C(F)(F)F)c1Cl [Example 11, 7-[2-chloro-3-(trifluoromethyl)phenyl]-N-[(4S)-3,4-dihydro-2H-chromen-4-yl]-6-methyl-3-(propan-2-yl)pyrazolo[5,1-b][1,3]thiazole-2-carboxamide] |  |  | < 0.1 | 90 | < 3.16 | 100
12 | Cc1nn2c(C(C)C)c(C(=O)N[C@H]3CCOc4ccccc43)sc2c1-c1cc(Cl)cc(Cl)c1Cl [Example 12, N-[(4S)-3,4-dihydro-2H-chromen-4-yl]-6-methyl-3-(propan-2-yl)-7-(2,3,5-trichlorophenyl)pyrazolo[5,1-b][1,3]thiazole-2-carboxamide] |  |  | < 0.1 | 80 | < 3.16 | 100
13 | Cc1nn2c(C(C)C)c(C(=O)N[C@H]3CCOc4ccccc43)sc2c1-c1cccc(N(C)C)c1F [Example 13, N-[(4S)-3,4-dihydro-2H-chromen-4-yl]-7-[3-(dimethylamino)-2-fluorophenyl]-6-methyl-3-(propan-2-yl)pyrazolo[5,1-b][1,3]thiazole-2-carboxamide] | > 80 |  | < 0.1 |  | < 3.16 | 90
14 | Cc1nn2c(C(C)C)c(C(=O)N[C@H]3CCc4ccccc43)sc2c1-c1cc(Cl)c(F)c(Cl)c1 [Example 14, 7-(3,5-dichloro-4-fluorophenyl)-N-[(1S)-2,3-dihydro-1H-inden-1-yl]-6-methyl-3-(propan-2-yl)pyrazolo[5,1-b][1,3]thiazole-2-carboxamide] | > 80 | > 80 | < 0.1 |  | 3.16 to 31.6 | 
15 | Cc1nn2c(C(C)C)c(C(=O)N[C@H]3CCc4ccccc43)sc2c1-c1cccc(Cl)c1Cl [Example 15, 7-(2,3-dichlorophenyl)-N-[(1S)-2,3-dihydro-1H-inden-1-yl]-6-methyl-3-(propan-2-yl)pyrazolo[5,1-b][1,3]thiazole-2-carboxamide] |  |  | < 0.1 |  | < 3.16 | 
